{"source": "paper PMC7229206", "about": "“Split Intein-Mediated Protein Ligation for detecting protein-protein interactions and their inhibition” (Nature Communications, 2020)", "target": "T1, EGFR (Homo sapiens, UniProt P00533)", "T1 construct": "EGFR-IN; with SHC1", "T1 sequence (P00533 25-1210)": "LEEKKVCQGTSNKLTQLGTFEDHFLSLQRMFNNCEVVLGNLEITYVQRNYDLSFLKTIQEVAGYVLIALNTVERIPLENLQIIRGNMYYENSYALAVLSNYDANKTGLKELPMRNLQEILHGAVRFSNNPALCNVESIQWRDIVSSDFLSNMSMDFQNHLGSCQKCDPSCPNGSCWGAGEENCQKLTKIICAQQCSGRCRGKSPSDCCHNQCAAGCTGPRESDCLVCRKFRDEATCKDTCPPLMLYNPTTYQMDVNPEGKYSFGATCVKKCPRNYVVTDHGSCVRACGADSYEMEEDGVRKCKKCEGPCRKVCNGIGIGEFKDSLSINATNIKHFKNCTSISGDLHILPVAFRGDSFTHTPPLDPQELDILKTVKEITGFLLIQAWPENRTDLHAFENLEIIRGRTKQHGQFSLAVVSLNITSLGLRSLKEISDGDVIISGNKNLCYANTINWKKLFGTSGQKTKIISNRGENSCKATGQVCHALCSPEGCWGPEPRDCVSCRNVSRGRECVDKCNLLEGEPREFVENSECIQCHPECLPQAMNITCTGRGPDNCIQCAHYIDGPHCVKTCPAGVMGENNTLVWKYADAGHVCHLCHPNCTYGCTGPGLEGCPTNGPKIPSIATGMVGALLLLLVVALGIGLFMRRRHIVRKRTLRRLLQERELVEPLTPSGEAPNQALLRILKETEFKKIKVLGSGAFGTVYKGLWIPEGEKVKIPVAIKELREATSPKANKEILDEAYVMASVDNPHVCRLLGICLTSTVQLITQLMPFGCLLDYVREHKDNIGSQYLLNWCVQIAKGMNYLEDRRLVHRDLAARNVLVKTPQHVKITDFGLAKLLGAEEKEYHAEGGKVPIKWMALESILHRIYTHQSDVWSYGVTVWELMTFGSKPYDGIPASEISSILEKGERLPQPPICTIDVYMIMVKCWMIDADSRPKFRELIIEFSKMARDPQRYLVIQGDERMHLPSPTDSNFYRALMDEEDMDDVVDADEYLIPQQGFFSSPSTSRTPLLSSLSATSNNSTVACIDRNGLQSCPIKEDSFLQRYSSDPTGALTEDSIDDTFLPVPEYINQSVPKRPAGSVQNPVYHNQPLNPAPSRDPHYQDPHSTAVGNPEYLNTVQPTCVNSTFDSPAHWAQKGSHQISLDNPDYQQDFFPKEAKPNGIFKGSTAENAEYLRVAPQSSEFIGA", "T1 sequence (P29353 whole entry, further chain)": "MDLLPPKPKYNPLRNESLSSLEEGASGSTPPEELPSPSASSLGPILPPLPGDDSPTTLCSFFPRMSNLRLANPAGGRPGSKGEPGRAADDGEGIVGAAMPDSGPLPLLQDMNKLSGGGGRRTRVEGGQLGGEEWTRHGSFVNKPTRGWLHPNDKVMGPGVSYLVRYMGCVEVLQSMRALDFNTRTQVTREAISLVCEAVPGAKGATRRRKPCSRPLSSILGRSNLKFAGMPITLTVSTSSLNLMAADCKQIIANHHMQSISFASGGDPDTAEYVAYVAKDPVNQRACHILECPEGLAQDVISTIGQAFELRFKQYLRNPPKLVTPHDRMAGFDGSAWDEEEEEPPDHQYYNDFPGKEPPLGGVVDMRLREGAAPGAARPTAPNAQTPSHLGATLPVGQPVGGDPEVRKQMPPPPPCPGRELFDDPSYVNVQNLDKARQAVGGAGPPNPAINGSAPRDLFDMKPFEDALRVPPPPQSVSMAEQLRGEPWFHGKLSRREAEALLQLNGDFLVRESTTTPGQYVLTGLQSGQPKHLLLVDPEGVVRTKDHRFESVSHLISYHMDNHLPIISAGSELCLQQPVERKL", "assay": "SIMPL western blot of EGFR/SHC1 interaction in cells (indirect readout of EGFR kinase activity)", "format": "cell-based"}
{"smiles": "COc1cc2ncnc(Nc3cccc(Cl)c3)c2cc1OC", "note": "[AG1478]", "values": [{"measurement": "SIMPL western blot of EGFR/SHC1 interaction in cells (indirect readout of EGFR k)", "result": "The spliced EGFR-SHC1 band observed by western blot diminished with increasing AG1478 concentration."}]}
